Assay results published in patent publication US20170253601A1, “Substituted Pyrrolidine Compounds” (EPIZYME, INC., priority 2014, published 2017).

Target: T1, SMYD2 (Homo sapiens, UniProt Q9NRG4)
T1 construct: Full length SMYD2 (NP 064582.2) was cloned; His6 (N, cleaved yes); FLAG (N); made in house; host or cells: Sf9 insect cells
Test: SMYD2 Biochemical Assay (3H-SAM, biotinylated peptide substrate, Flashplate)
Settings: IC50 values are an average of n = 1 to n = 50; read-out: SMYD2 Biochem IC50 (μM)*
Method in brief: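 Methyltransferase activity tracked as 3H transfer from 10 nM 3H-SAM to 60 nM biotinylated peptide, counted after streptavidin Flashplate capture and normalised to DMSO and 1000 uM SAH controls. Enzyme: 1.5 nM full-length Sf9-expressed SMYD2, 30 min compound pre-incubation at room temperature, in Bicine pH 7.6 buffer with 2% DMSO; reactions quenched with 600 uM unlabelled SAM; IC50 from 3- or 4-parameter fit.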

T1 sequence (Q9NRG4 whole entry): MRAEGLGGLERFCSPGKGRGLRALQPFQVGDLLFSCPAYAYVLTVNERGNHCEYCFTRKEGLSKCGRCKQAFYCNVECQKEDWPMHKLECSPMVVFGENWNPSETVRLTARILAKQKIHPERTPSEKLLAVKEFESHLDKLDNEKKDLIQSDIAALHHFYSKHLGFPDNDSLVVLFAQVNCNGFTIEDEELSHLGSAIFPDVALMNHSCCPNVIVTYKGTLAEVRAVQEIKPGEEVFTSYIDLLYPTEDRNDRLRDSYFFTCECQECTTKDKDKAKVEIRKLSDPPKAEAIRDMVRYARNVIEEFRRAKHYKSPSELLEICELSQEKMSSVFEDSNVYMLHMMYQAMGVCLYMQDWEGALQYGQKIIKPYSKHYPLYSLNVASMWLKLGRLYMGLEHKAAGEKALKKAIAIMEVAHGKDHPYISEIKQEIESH

SMILES | IC50
C[C@H]1CN(Cc2ccc3nonc3c2)C[C@H]1NC(=O)c1cc(C2CC2)on1 (racemic) [compound 222, (±)-cis-N-[1-(2,1,3-benzoxadiazol-5-ylmethyl)-4-methyl-pyrrolidin-3-yl]-5-cyclopropyl-1,2-oxazole-3-carboxamide] | 41.6 µM
CC(C)c1cc(C(=O)N[C@H]2C[C@@H](CNC(=O)C3CCCCC3)N(C3CC3)C2)no1 (racemic) [compound 224, (±)-cis-N-[5-[(cyclohexyl-formamido)methyl]-1-cyclopropylpyrrolidin-3-yl]-5-(propan-2-yl)-1,2-oxazole-3-carboxamide] | > 50 µM
CC(C)c1cc(C(=O)N[C@H]2C[C@@H](CNC(=O)c3ccccc3)N(C3CC3)C2)no1 (racemic) [compound 227, (±)-cis-N-[1-cyclo-propyl-5-[(phenyl-formamido)methyl]pyrrolidin-3-yl]-5-(propan-2-yl)-1,2-oxazole-3-carboxamide] | > 50 µM
C[C@H]1CN(Cc2ccc(N(C)C)cc2)C[C@H]1NC(=O)c1cc(C2CC2)on1 (racemic) [compound 230, (±)-cis-5-cyclopropyl-N-[1-{[4-(dimethyl-amino)phenyl]methyl}-4-methylpyrrolidin-3-yl]-1,2-oxazole-3-carboxamide] | 4.08 µM
C[C@H]1CN(Cc2c(Br)cncc2Br)C[C@H]1NC(=O)c1cc(C2CC2)on1 (racemic) [compound 231, (±)-cis-5-cyclopropyl-N-[1-[(3,5-dibromo-pyridin-4-yl)methyl]-4-methylpyrrolidin-3-yl]-1,2-oxazole-3-carboxamide] | > 50 µM
C[C@H]1CN(Cc2cc(Cl)cnc2Cl)C[C@H]1NC(=O)c1cc(C2CC2)on1 (racemic) [compound 232, (±)-cis-5-cyclopropyl-N-[1-[(2,5-dichloro-pyridin-3-yl)methyl]-4-methylpyrrolidin-3-yl]-1,2-oxazole-3-carboxamide] | 36.1 µM
COc1cccc(CN2C[C@H](C)[C@H](NC(=O)c3cc(C4CC4)on3)C2)c1OC (racemic) [compound 233, (±)-cis-5-cyclopropyl-N-[1-[(2,3-dimethoxy-phenyl)methyl]-4-methylpyrrolidin-3-yl]-1,2-oxazole-3-carboxamide] | 2.27 µM
CC(C)N1C[C@@H](NC(=O)c2cc(C3CC3)on2)C[C@H]1COCC#CC1CCCCC1 (racemic) [compound 239, (±)-cis-N-[5-{[(3-cyclo-hexylprop-2-yn-1-yl)oxy]methyl}-1-(propan-2-yl)pyrrolidin-3-yl]-5-cyclopropyl-1,2-oxazole-3-carboxamide] | > 50 µM
CC(C)N1C[C@@H](NC(=O)c2cc(C3CC3)on2)[C@@](C)(O)C1 (racemic) [compound 241, (±)-cis-5-cyclopropyl-N-[4-hydroxy-4-methyl-1-(propan-2-yl)pyrrolidin-3-yl]-1,2-oxazole-3-carboxamide] | 24.8 µM
CC(C)N1C[C@@H](C)[C@H](NC(=O)c2cc(C3(C)CC3)on2)C1 (racemic) [compound 250, (±)-trans-N-[4-methyl-1-(propan-2-yl)pyrrolidin-3-yl]-5-(1-methylcyclo-propyl)-1,2-oxazole-3-carboxamide] | > 50 µM
CN1C[C@@H](C(F)(F)F)[C@H](NC(=O)c2cc(C3CC3)on2)C1 (racemic) [compound 251, (±)-trans-5-cyclopropyl-N-[1-methyl-4-(trifluoro-methyl)pyrrolidin-3-yl]-1,2-oxazole-3-carboxamide] | > 50 µM
CC(C)N1C[C@@H](C(F)(F)F)[C@H](NC(=O)c2cc(C3CC3)on2)C1 (racemic) [compound 252, (±)-trans-5-cyclopropyl-N-[1-(propan-2-yl)-4-(trifluoromethyl)pyrrolidin-3-yl]-1,2-oxazole-3-carboxamide] | > 50 µM
CC(C)N1C[C@H](NC(=O)c2cc(C3CC3)on2)[C@H](C(C)(C)C)C1 (racemic) [compound 258, (±)-cis-N-[4-tert-butyl-1-(propan-2-yl)pyrrolidin-3-yl]-5-cyclopropyl-1,2-oxazole-3-carboxamide] | > 50 µM
CC(C)N1C[C@@H](C)[C@H](NC(=O)c2cc(C3(C)CCC3)on2)C1 (racemic) [compound 259, (±)-trans-N-[4-methyl-1-(propan-2-yl)pyrrolidin-3-yl]-5-(1-methylcyclobutyl)-1,2-oxazole-3-carboxamide] | > 50 µM
CC(C)N1C[C@H](C)[C@H](NC(=O)c2cc(C3(C)CCC3)on2)C1 (racemic) [compound 260, (±)-cis-N-[4-methyl-1-(propan-2-yl)pyrrolidin-3-yl]-5-(1-methyl-cyclobutyl)-1,2-oxazole-3-carboxamide] | > 50 µM

Further lines, results first:

IC50 | SMILES
> 50 µM | COC(=O)CN1C[C@@H](C)[C@H](NC(=O)c2cc(C3CC3)on2)C1 (racemic) [compound 220, (±)-trans-methyl 2-[3-(5-cyclopropyl-1,2-oxazole-3-amido)-4-methylpyrrolidin-1-yl]acetate]
> 50 µM | COC(=O)CN1C[C@H](C)[C@H](NC(=O)c2cc(C3CC3)on2)C1 (racemic) [compound 221, (±)-cis-methyl 2-[3-(5-cyclopropyl-1,2-oxazole-3-amido)-4-methylpyrrolidin-1-yl]acetate]
4.96 µM | COc1cccc(CN2C[C@H](C)[C@H](NC(=O)c3cc(C4CC4)on3)C2)c1 (racemic) [compound 223, (±)-cis-5-cyclopropyl-N-[1-[(3-methoxy-phenyl)methyl]-4-methylpyrrolidin-3-yl]-1,2-oxazole-3-carboxamide]
> 50 µM | C[C@@H]1CN(C2CCS(=O)(=O)CC2)C[C@H]1NC(=O)c1cc(C2CC2)on1 (racemic) [compound 225, (±)-trans-5-cyclopropyl-N-[1-(1,1-dioxo-1??- thian-4-yl)-4-methyl-pyrrolidin-3-yl]-1,2-oxazole-3-carboxamide]
3.63 µM | COc1ccc(CN2C[C@H](C)[C@H](NC(=O)c3cc(C4CC4)on3)C2)cc1 (racemic) [compound 228, (±)-cis-5-cyclopropyl-N-[1-[(4-methoxy-phenyl)methyl]-4-methylpyrrolidin-3-yl]-1,2-oxazole-3-carboxamide]
3.32 µM | C[C@H]1CN(Cc2ccc(N3CCCC3)cc2)C[C@H]1NC(=O)c1cc(C2CC2)on1 (racemic) [compound 229, (±)-cis-5-cyclopropyl-N-[4-methyl-1-{[4-(pyrrolidin-1-yl)phenyl]methyl}pyrrolidin-3-yl]-1,2-oxazole-3-carboxamide]
10.5 µM | CC(C)N1C[C@H](C)[C@H](NC(=O)c2cc(C3CCC3)on2)C1 (racemic) [compound 248, (±)-cis-5-cyclobutyl-N-[4-methyl-1-(propan-2-yl)pyrrolidin-3-yl]-1,2-oxazole-3-carboxamide]
> 50 µM | CC(C)N1C[C@@H](C)[C@H](NC(=O)c2cc(C3CCC3)on2)C1 (racemic) [compound 249, (±)-trans-5-cyclobutyl-N-[4-methyl-1-(propan-2-yl)pyrrolidin-3-yl]-1,2-oxazole-3-carboxamide]
> 50 µM | C[C@@H]1CN(CCF)C[C@H]1NC(=O)c1cc(C2CC2)on1 (racemic) [compound 253, (±)-trans-5-cyclopropyl-N-[1-(2-fluoroethyl)-4-methylpyrrolidin-3-yl]-1,2-oxazole-3-carboxamide]
5.72 µM | C[C@H]1CN(CCF)C[C@H]1NC(=O)c1cc(C2CC2)on1 (racemic) [compound 254, (±)-cis-5-cyclopropyl-N-[1-(2-fluoroethyl)-4-methylpyrrolidin-3-yl]-1,2-oxazole-3-carboxamide]
> 50 µM | C[C@@H]1CN(CC2CCN(C(=O)OC(C)(C)C)CC2)C[C@H]1NC(=O)c1cc(C2CC2)on1 (racemic) [compound 255, (±)-trans-tert-butyl 4-{[3-(5-cyclopropyl-1,2-oxazole-3-amido)-4-methylpyrrolidin-1-yl]methyl}piperidine-1-carboxylate]
> 50 µM | C[C@@H]1CN(CC2CCNCC2)C[C@H]1NC(=O)c1cc(C2CC2)on1 (racemic) [compound 256, (±)-trans-5-cyclopropyl-N-[4-methyl-1-(piperidin-4-ylmethyl)pyrrolidin-3-yl]-1,2-oxazole-3-carboxamide]
> 50 µM | CN1C[C@H](NC(=O)c2cc(C3CC3)on2)[C@H](C(C)(C)C)C1 (racemic) [compound 257, (±)-cis-N-[4-tert-butyl-1-methylpyrrolidin-3-yl]-5-cyclopropyl-1,2-oxazole-3-carboxamide]
> 50 µM | C[C@@H]1CN(CC(F)(F)F)C[C@H]1NC(=O)c1cc(C2CC2)on1 (racemic) [compound 261, (±)-trans-5-cyclopropyl-N-[4-methyl-1-(2,2,2-trifluoroethyl)pyrrolidin-3-yl]-1,2-oxazole-3-carboxamide]
> 50 µM | C[C@H]1CN(CC(F)(F)F)C[C@H]1NC(=O)c1cc(C2CC2)on1 (racemic) [compound 262, (±)-cis-5-cyclopropyl-N-[4-methyl-1-(2,2,2-trifluoroethyl)pyrrolidin-3-yl]-1,2-oxazole-3-carboxamide]
> 50 µM | C[C@H]1CN(CC(=O)N2CCN(C)CC2)C[C@H]1NC(=O)c1cc(C2CC2)on1 (racemic) [compound 263, (±)-cis-5-cyclopropyl-N-[4-methyl-1-[2-(4-methylpiperazin-1-yl)-2-oxoethyl]pyrrolidin-3-yl]-1,2-oxazole-3-carboxamide]
> 50 µM | C[C@H]1CN(CC(=O)N2CCCC2)C[C@H]1NC(=O)c1cc(C2CC2)on1 (racemic) [compound 264, (±)-cis-5-cyclopropyl-N-[4-methyl-1-[2-oxo-2-(pyrrolidin-1-yl)ethyl]pyrrolidin-3-yl]-1,2-oxazole-3-carboxamide]
